Measurements: patent US10793557B2, “Sting agonist compounds” (Merck Sharp & Dohme Corp., priority 2018, dated 2020)

Tests used:
full-length WT STING = target: T1, full-length WT STING (Homo sapiens, UniProt Q86WV6, H232R); experiment: 3H-cGAMP filtration binding assay (WT STING); conditions: competition with tritiated cGAMP, WT STING membrane
T1 construct: AviTag (after gg linker) (C); HRV3C cleavage site (after gs linker) (C); HIS8 (C); made in house; host or cells: Trichoplusia ni (Hi-Five) insect cells infected with baculovirus (virus generated and amplified in Sf21 cells); used as a washed membrane preparation
T1 sequence (Q86WV6 with tags, fused parts or gaps H232R): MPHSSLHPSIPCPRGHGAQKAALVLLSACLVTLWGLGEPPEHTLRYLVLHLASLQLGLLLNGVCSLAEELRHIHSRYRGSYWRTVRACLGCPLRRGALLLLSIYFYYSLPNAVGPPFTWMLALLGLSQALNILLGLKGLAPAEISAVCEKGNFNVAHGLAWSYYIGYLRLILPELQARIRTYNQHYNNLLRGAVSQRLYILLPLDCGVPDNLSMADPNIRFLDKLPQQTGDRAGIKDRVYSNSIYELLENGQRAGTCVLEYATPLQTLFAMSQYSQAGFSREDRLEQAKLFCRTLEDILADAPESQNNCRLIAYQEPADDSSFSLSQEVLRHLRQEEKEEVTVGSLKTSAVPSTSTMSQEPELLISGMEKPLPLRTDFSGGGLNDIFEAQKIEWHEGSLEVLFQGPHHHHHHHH
Protocol: (§1) The ability of compounds to bind STING is quantified by their ability to compete with tritiated cGAMP ligand for human STING receptor membrane using a radioactive filter-binding assay. The binding assay employs STING receptor obtained from Trichoplusia ni cell membranes (T. ni; Expression Systems, cat #94-002F, www.expressionsystems.com) overexpressing full-length WT STING and tritiated cGAMP ligand.
The basic WT STING filtration assay protocol is as follows:
16 nM of [^3H] c-GAMP ligand was prepared by diluting into assay buffer, and 50 uL of this working stock was manually added to each well of the assay plate. After ligand addition, 2 uL of either titrated test compound, DMSO control (Sigma #276855), or cold cGAMP control was added to the appropriate wells using a BIOMEK FX. The serially titrated compound was prepared on a Hamilton STARPlus CORE in a 96-well plate (Greiner, #651201) using a 1:3 ten-point dose response format. Following compound addition, a 2.2 ug/ml working concentration of STING membrane (SEQ. ID. No. 3) was prepared by diluting concentrated membrane into assay buffer (1×PBS; Invitrogen # SH30028.02) and douncing 7× using a manual tissue homogenizer (Wheaton, #357546). 148 uL of this prepared membrane was then manually added to each well of a 96-well deep-well polypropylene plate (Fisher Scientific, #12-566-121). Compound, ligand, and membrane then incubated for 60 min at RT before the contents of each assay plate were filtered through a 96-well GF/B filter plate (PerkinElmer, #6005250) using a TOMTEC MACH III Cell Harvester equipped with 20 mM HEPES buffer (Fisher Scientific, # BP299500). The filter plates were then dried at 55° C. for 30 min using a pressurized VWR oven before 30 uL of ULTIMA GOLD F scintillate was added to each well. Tritium levels for each reaction well were then measured using a PerkinElmer TopCount plate reader.
(§2) After normalization to controls, the percent activity for each compound concentration was calculated by measuring the amount of remaining radioactivity. The plot of percent activity versus the log of compound concentration was fit with a 4-parameter dose response equation to calculate EC50 values.

full-length HAQ STING = target: T2, full-length HAQ STING (Homo sapiens, UniProt Q86WV6, G230A/H232R/R293Q/R71H); experiment: 3H-cGAMP filtration binding assay (HAQ STING); conditions: competition with tritiated cGAMP, HAQ STING membrane
T2 construct: AviTag (after GG linker) (C); HRV3C cleavage site (after GS linker) (C); HIS8 (C); made in house; host or cells: Trichoplusia ni (Hi-Five) insect cells infected with baculovirus (virus generated and amplified in Sf21 cells); used as a washed membrane preparation
T2 sequence (Q86WV6 with tags, fused parts or gaps R71H/G230A/H232R/R293Q): as the sequence (Q86WV6 with tags, fused parts or gaps H232R) above, with R71H, G230A, R293Q counted along it
Excerpt: The ability of compounds to bind STING is quantified by the ability to compete with tritiated cGAMP ligand for human STING receptor membrane using a radioactive filter-binding assay. The binding assay employs STING receptor obtained from Hi-Five cell membranes overexpressing full-length HAQ STING prepared in-house and tritiated cGAMP ligand also purified in-house.
as §1, with “HAQ” for “WT”
The basic HAQ STING filtration assay protocol is as follows:
The compounds were serially titrated by the Hamilton STARPlus CORE in a 96-well plate (Greiner, #651201) using a 1:3 ten-point dose response format. After compound preparation, a 2.2 ug/ml working concentration of STING membrane (SEQ. ID. No. 1) was prepared by diluting concentrated membrane into assay buffer (1×PBS; Invitrogen # SH30028.02) and douncing 7× using a manual tissue homogenizer (Wheaton, #357546). 148 uL of prepared membrane was then manually added to each well of a 96-well deep-well polypropylene plate (Fisher Scientific, #12-566-121). Following membrane addition, 2 uL of either titrated test compound, DMSO control (Sigma #276855), or cold cGAMP control was added to the appropriate wells using a BIOMEK FX. Compound and membrane then preincubated for 60 min at RT to allow compound binding to equilibrate. Following equilibration, 8 nM of [^3H]c-GAMP ligand was prepared by diluting into assay buffer, and 50 uL of this working stock was then manually added to each well of the assay plate. Plates were then incubated at RT for 60 min, and the contents of each assay plate were then filtered through a 96-well GF/B filter plate (PerkinElmer, #6005250) using a TOMTEC MACH III Cell Harvester equipped with 20 mM HEPES buffer (Fisher Scientific, # BP299500). The filter plates were then dried at 55° C. for 30 min using a pressurized oven before 30 uL of ULTIMA GOLD F scintillate was added to each well. Tritium levels for each reaction well were then measured using a PerkinElmer TopCount plate reader.
as §2

[1] = test system: secretion of interferon-beta from THP1 cells; experiment: IFN-β secretion in THP1 cell culture (5 h); type: cell-based; conditions: Homo sapiens, THP-1, 5 h, compound at 30 μM, 30 uM cGAMP = 100%, read-out: % Effect at 30 μM relative to 2′3′-cGAMP
Protocol: The ability of compounds to stimulate the secretion of interferon-beta from THP1 cells was measured using a human IFN-β AlphaLISA kit (Perkin Elmer, Cat. No. AL265F). The basic protocol is as follows:
A Labcyte Echo 550 acoustic dispenser was used to transfer 120 nL of compound dissolved in DMSO into the wells of an empty, sterile 384-well microplate, (Corning, Cat. No. 3712). THP1 cells (American Type Culture Collection, Cat. No. TIB202) previously frozen in Recovery Medium (Life Technologies, Cat. No. 12648-010) were thawed and immediately diluted 10-fold into 37° C. assay medium (RPMI 1640+L-Glutamine & phenol red, Life Technologies, Cat. No. 11875-085; 0.5% heat inactivated fetal bovine serum, Sigma Aldrich, Cat. No. F4135; 1 mM Sodium Pyruvate, Life Technologies, Cat. No. 11360-070; 1× non-essential amino acids; Life Technologies, Cat. No. 11140-050). The cell viability and count was ascertained using a Beckman Coulter V-Cell XR cell counter. The cells suspension was centrifuged at 200×g for 5 min at RT. Cells were resuspended to a density of 0.8×10^6/mL in 37° C. assay medium. Subsequent liquid transfers were performed using either a Matrix electronic multichannel pipette or an Agilent Bravo Automated Liquid Handling Platform.
The assay was started by dispensing 40 μL of the previously prepared cell suspension into the wells of the plate containing compounds. After 5 h incubation at 37° C., 5% CO2 in a humidified atmosphere, the plate of cells and compounds was centrifuged at 200×g for 5 min at RT. From each well, 5 μL of supernatant was transferred into corresponding wells of a white 384-well plate (Perkin Elmer, Cat. No. 6005620). To these supernatant-containing wells was added 10 μL of 5× Anti-Analyte Acceptor beads (50 μg/mL of AlphaLISA HiBlock Buffer) and incubated for 30 min at RT while shaking on an orbital plate shaker. To each well was added 10 μL of 5× Biotinylated Antibody Anti-analyte (5 nM in AlphaLISA HiBlock Buffer) and incubated on an orbital plate shaker for 60 min at RT or overnight at 4° C. To each well was added 25 μL of 2× SA-Donor beads (80 μg/mL in AlphaLISA HiBlock Buffer) and incubated for 30-45 min at RT in the dark while shaking on an orbital plate shaker. The plate was then read on a Perkin Elmer Envision (λex=680 nm, […]). The percent effect of the AlphaLISA signal at each compound concentration was calculated based on 30 uM cGAMP positive controls and 0.3% DMSO negative controls. The plot of percent effect versus the log of compound concentration was fit with a 4-parameter concentration response equation to calculate EC50 values. The test compounds were tested at concentrations 30000, 10000, 3333, 1111, 370.4, 123.4, 41.2, 13.7, 4.6, and 1.5 nM with 0.3% residual DMSO. The control compound, cGAMP was tested at concentrations 100000, 33333, 11111, 3704, 1235, 412, 137, 46, and 15 nM with 0.3% residual DMSO.
Compounds of the disclosure were evaluated for IFN-β secretion in THP1 cell culture as described above. The following table tabulates the biological data for these compounds as percent activation relative to 2′3′-cGAMP at the 30 µM concentration.

Compound | EC50 (full-length WT STING) [nM] | EC50 (full-length HAQ STING) [nM] | activation at 30 µM [1] [%]
COc1cc2sc(C(=O)C[C@H](C)C(=O)O)cc2nc1OCCOc1c(OC)cc2sc(C(=O)C[C@H](C)C(=O)O)cc2c1F (racemic) [Example 19, rac-(R)-4-(5-(2-((2-((R)-3-carboxybutanoyl)-4-fluoro-6-methoxybenzo[b]thiophen-5-yl)oxy)ethoxy)-6-methoxythieno[3,2-b]pyridin-2-yl)-2-methyl-4-oxobutanoic acid] | 9 | 2 | 30
COc1cc2sc(C(=O)C[C@H](C)C(=O)O)cc2nc1OCCCOc1c(OC)cc2sc(C(=O)C[C@H](C)C(=O)O)cc2c1F (racemic) [Example 22, rac-(R)-4-(5-(3-((2-((R)-3-carboxybutanoyl)-4-fluoro-6-methoxybenzo[b]thiophen-5-yl)oxy)propoxy)-6-methoxythieno[3,2-b]pyridin-2-yl)-2-methyl-4-oxobutanoic acid] | 1 | 1 | 48
COc1cc2sc(C(=O)C[C@H](C)C(=O)O)cc2cc1OCCOc1cc2sc(C(=O)C[C@H](C)C(=O)O)cc2cc1OC (racemic) [Example 57, rac-(R)-4-(5-(2-((2-((R)-3-carboxybutanoyl)-5-methoxybenzo[b]thiophen-6-yl)oxy)ethoxy)-6-methoxybenzo[b]thiophen-2-yl)-2-methyl-4-oxobutanoic acid] | 398 | 92 | 15
COc1cc2sc(C(=O)C[C@H](C)C(=O)O)cc2cc1OCCCOc1cc2cc(C(=O)[C@H]3C[C@@H]3C(=O)O)sc2cc1OC (racemic) [Example 68, rac-(1R,2R)-2-(5-(3-((2-((R)-3-carboxybutanoyl)-6-methoxybenzo[b]thiophen-5-yl)oxy)propoxy)-6-methoxybenzo[b]thiophene-2-carbonyl)cyclopropane-1-carboxylic acid] | 443 | 50 | 24
COc1cc2sc(C(=O)CCC(=O)O)cc2cc1CCCOc1c(OC)cc2sc(C(=O)[C@@H]3C[C@H]3C(=O)O)cc2c1F (relative stereo) [Example 85, trans-2-(5-(3-(2-(3-carboxypropanoyl)-6-methoxybenzo[b]thiophen-5-yl)propoxy)-4-fluoro-6-methoxybenzo[b]thiophene-2-carbonyl)cyclopropane carboxylic acid] | 9010 | 360 | 145
COc1cc2sc(C(=O)CCC(=O)O)cc2c(F)c1OCCCOc1c(OC)cc2sc(C(=O)[C@@H]3C[C@H]3C(=O)O)cc2c1F (relative stereo) [Example 88, trans-2-(5-(3-((2-(3-carboxypropanoyl)-4-fluoro-6-methoxybenzo[b]thiophen-5-yl)oxy)propoxy)-4-fluoro-6-methoxybenzo[b]thiophene-2-carbonyl)cyclopropane carboxylic acid] | 109 | 3 | 152
COc1cc2sc(C(=O)C[C@H](C)C(=O)O)cc2c(F)c1OCCCOc1cc2sc(C(=O)[C@@H]3CC[C@H]3C(=O)O)cc2c(F)c1OC (single isomer, unassigned) [Example 97] | 69 | 20 | 
COc1cc2sc(C(=O)C[C@H](C)C(=O)O)cc2c(F)c1OCCCOc1c(OC)cc2sc(C(=O)[C@@H]3CC[C@H]3C(=O)O)cc2c1F [Example 98, trans-2-(5-(3-((2-((S)-3-carboxybutanoyl)-4-fluoro-6-methoxybenzo[b]thiophen-5-yl)oxy)propoxy)-4-fluoro-6-methoxybenzo[b]thiophene-2-carbonyl)cyclobutane carboxylic acid] |  | 1 | 92
COc1cc2sc(C(=O)C[C@H](C)C(=O)O)cc2c(F)c1OCCCOc1c(OC)cc2sc(C(=O)[C@@H]3CC[C@H]3C(=O)O)cc2c1F [Example 99, trans-2-(5-(3-((2-((S)-3-carboxybutanoyl)-4-fluoro-6-methoxybenzo[b]thiophen-5-yl)oxy)propoxy)-4-fluoro-6-methoxybenzo[b]thiophene-2-carbonyl)cyclobutane carboxylic acid] |  | 1 | 
